Assay [1] has as its system UVB-induced apoptosis in mouse skin. To be noted: hairless mice pretreated with 1% pimecrolimus cream or 0.1% tacrolimus ointment; UVB irradiation; versus untreated mice; cited from earlier work.
Assay [2] has as its system DNA damage induced by UV light in mouse skin (epidermal thymine dimers). The following applies: hairless mice pretreated with 1% pimecrolimus cream or 0.1% tacrolimus ointment; measured one hour after 1 J/cm^2 UVB irradiation; cited from earlier work.
Assay [3] has as its system pyrimidine/thymine dimers in DNA extracted from epidermis. Nature of the assay: Thymine dimer levels in human epidermis after simulated solar radiation (immunoslot blot, chemoluminescence image analysis). The following applies: skin sites of subjects with or without atopic dermatitis pretreated with pimecrolimus, 1 hour post-irradiation. It is filed as in vivo. Here is the method:
Similar results are obtained with skin from subjects receiving pimecrolimus, either with or without skin disease (atopic dermatitis), exposed to simulated solar radiation, when DNA is extracted from epidermis biopsied 1 hour and 24 hours after irradiation, as measured by pyrimidine dimer visualization by immunoslot blot and quantification by chemoluminescence image analysis: at 1 hour post-irradiation thymine dimer levels are clearly lower as compared to untreated control, indicative of reduced dimer production in skin sites pretreated with pimecrolimus.

Here are results for two compounds from patent US20080107613A1, “Pharmaceutical composition comprising a macrolide t-cell immunomodulator and anti-photoaging agent” (priority 2004, published 2008).

With `C=CC[C@@H]1/C=C(\C)C[C@H](C)C[C@H](OC)[C@H]2O[C@@](O)(C(=O)C(=O)N3CCCC[C@H]3C(=O)O[C@H](/C(C)=C/[C@@H]3CC[C@@H](O)[C@H](OC)C3)[C@H](C)[C@@H](O)CC1=O)[C@H](C)C[C@@H]2OC` [tacrolimus], the UVB-induced apoptosis entry in assay [1] is given as “less pronounced”. For the same compound, the “decrease of amount of epidermal thymine dimers as compared to untreated mice” value in assay [2] is 84%.

For “{[1E-(1R,3R,4S)]1R,9S,12S, 13R,14S,17R,18E,21S,23S,24R,25S,27R}-12-[2-(4-chloro-3-methoxycyclohexyl)-1-methylvinyl]-17-ethyl-1,14-dihydroxy-23,25-dimethoxy-13,19,21,27-tetramethyl-11,28,dioxa-4-azatricyclo [22.3.1.0(4,9)]octacos-18-ene-2,3,10,16-tetraone [pimecrolimus]”, in assay [3], the “thymine dimer levels as compared to untreated control” value is recorded as “clearly lower”. In addition, in assay [1], the UVB-induced apoptosis entry is “less pronounced”. For the same compound, in assay [2], the “decrease of amount of epidermal thymine dimers as compared to untreated mice” value is on record as 89%.
